Values of other authors in US20250339399A1, “SUPRAMOLECULAR SELF-ASSEMBLY SYSTEM” (Beijing Creatron Institute of Pharmaceutical Research Co., …, priority 2022, published 2025).

Details: Cannabidiol derivatives, Table 30 (chemical structures); cited from earlier work
In the case of C=C(C)[C@@H]1CCC(C)=C[C@H]1c1c(O)cc(CCC)cc1O [compound 3, ((1′R,2′R)-5′-methyl-2′-(prop-1-en-2-yl)-4-propyl-1′,2′,3′,4′-tetrahydro-[1,1′-biphenyl]-2,6-diol)], the “Log P” value is listed as “Log P = 5.44 H-D:2,H-R = 2”. In the case of C=C(C)[C@@H]1CCC(C)=C[C@H]1c1c(O)cc(CCCC)cc1O [compound 4, ((1′R,2′R)-4-butyl-5′-methyl-2′-(prop-1-en-2-yl)-1′,2′,3′,4′-tetrahydro-[1,1′-biphenyl]-2,6-diol)], the “Log P” value is listed as “Log P = 5.88 H-D:2,H-R = 2”. For C=C(C)[C@@H]1CCC(C)=C[C@H]1c1c(O)cc(CCC)c(C(=O)O)c1O [compound 6, ((1′R,2′R)-2,6-dihydroxy-5′-methyl-2′-(prop-1-en-2-yl)-4-propyl-1′,2′,3′,4′-tetrahydro-[1,1′-biphenyl]-3-carboxylic acid)], the “Log P” value is listed as 5.74. In the case of C=C(C)[C@@H]1CCC(C)=C[C@H]1c1c(O)cc(CCCCC)cc1OC [compound 7, ((1′R,2′R)-6-methoxy-5′-methyl-4-pentyl-2′-(prop-1-en-2-yl)-1′,2′,3′,4′-tetrahydro-[1,1′-biphenyl]-2-ol)], the “Log P” value is given as “Log P = 6.47 H-D:1,H-R = 2”. In the case of C=C(C)c1ccc(C)cc1-c1c(O)cc(CCCCC)cc1O [compound 8, (5′-methyl-4-pentyl-2′-(prop-1-en-2-yl)-[1,1′-biphenyl]-2,6-diol)], the “Log P” value is given as “Log P = 6.85 H-D:2,H-R = 2”. In the case of C=C(C)[C@@H]1CCC(C(=O)O)=C[C@H]1c1c(O)cc(CCCCC)cc1O [compound 10, ((1R,6R)-2′,6′-dihydroxy-4′-pentyl-6-(prop-1-en-2-yl)-1,4,5,6-tetrahydro-[1,1′-biphenyl]-3-carboxylic acid)], the “Log P” value is listed as 5.52. In the case of C=C(C)[C@@H]1CCC(CO)=C[C@H]1c1c(O)cc(CCCCC)cc1O [compound 11, ((1′R,2′R)-5′-(hydroxymethyl)-4-pentyl-2′-(prop-1-en-2-yl)-1′,2′,3′,4′-tetrahydro-[1,1′-biphenyl]-2,6-diol)], the “Log P” value is given as “Log P = 5.04 H-D:3,H-R = 3”. In the case of C=C(C)[C@H]1CC[C@H](C)C[C@@H]1c1c(O)cc(/C=C/c2ccccc2)cc1O [compound 14, (2-((1S,2S,5S)-5-methyl-2-(prop-1-en-2-yl)cyclohexyl)-5-((E)-styryl)phenyl-1,3-diol)], the “Log P” value is listed as “Log P = 6.78 H-D:2,H-R = 2”. In the case of C=C(C)[C@H]1CC[C@H](C)C[C@@H]1c1c(O)cc(/C=C/c2ccccc2O)cc1O [compound 15, (5-((E)-2-hydroxystyryl-2-(1S,2S,5S)-5-methyl-2-(prop-1-en-2-yl)cyclohexyl)phenyl-1,3-diol)], the “Log P” value is given as “Log P = 6.48 H-D:3,H-R = 3”. For C=C(C)[C@H]1CC[C@H](C)C[C@@H]1c1c(O)cc(-c2cc3ccccc3o2)cc1O [compound 16], the “Log P” value is listed as “Log P = 6.17 H-D:2,H-R = 2”. In the case of C=C(C)[C@H]1CCC(C)=C[C@@H]1c1c(O)cc(O)c(C(=O)CCc2ccccc2)c1O [compound 18, (3-phenyl-1-((1′S,2′S)-2,4,6-trihydroxy-5′-methyl-2′-(prop-1-en-2-yl)-1′,2′,3′,4′-tetrahydro-[1,1′-biphenyl]-3-yl)prop-1-one)], the “Log P” value is listed as “Log P = 6.87 H-D:3,H-R = 4”. For C=C(C)[C@H]1CCC(C)=C[C@@H]1c1c(O)cc(CCCCC)cc1O [compound 19, ((1′S,2′S)-5′-methyl-4-pentyl-2′-(propanediol-1-en-2-yl)-1′,2′,3′,4′-tetrahydro-[1,1′-biphenyl]-2,6-diol)], the “Log P” value is listed as “Log P = 6.33 H-D:2,H-R = 2”. In the case of CCCCCc1cc(O)c([C@@H]2C=C(C)CC[C@H]2C(C)C)c(O)c1 [compound 20, ((1′S,2′S)-2′-isopropyl-5′-methyl-4-pentyl-1′,2′,3′,4′-tetrahydro-[1,1′-biphenyl]-2,6-diol)], the “Log P” value is listed as “Log P = 6.67 H-D:2,H-R = 2”. For CCCCCc1cc(O)c([C@@H]2CC(C)CC[C@H]2C(C)C)c(O)c1 (stereo partly drawn) [compound 21, (2-((1R,2S)-2-isopropyl-5-methylcyclohexyl)-5-pentylbenzene-1,3-diol)], the “Log P” value is listed as “Log P = 7.08 H-D:2,H-R = 2”. In the case of CCCCCc1cc(O)c([C@@H]2C=C(CO)CC[C@H]2C(C)C)c(O)c1 [compound 22, ((1′S,2′S)-5′-(hydroxymethyl)-2′-isopropyl-4-pentyl-1′,2′,3′,4′-tetrahydro-[1,1′-biphenyl]-2,6-diol)], the “Log P” value is listed as “Log P = 5.39 H-D:3,H-R = 3”. In the case of CCCCCc1cc(O)c([C@H]2C=C(CO)CC[C@H]2C(C)C)c(O)c1 [compound 23, ((1′R,2′S)-5′-(hydroxymethyl)-2′-isopropyl-4-pentyl-1′,2′,3′,4′-tetrahydro-[1,1′-biphenyl]-2,6-diol)], the “Log P” value is listed as “Log P = 5.39 H-D:3,H-R = 3”. In the case of C=C(C)[C@@H]1CCC(C)=C[C@H]1c1c(O)cc(C(C)(C)CCCCCC)cc1O [compound 24, ((1′R,2′R)-5′-methyl-4-(2-methyloctan-2-yl)-2′-(prop-1-en-2-yl)-1′,2′,3′,4′-tetrahydro-[1,1′-biphenyl]-2,6-diol)], the “Log P” value is listed as “Log P = 7.38 H-D:2,H-R = 2”. For C=C(C)[C@@H]1CCC(C(=O)O)=C[C@H]1c1c(O)cc(C(C)(C)CCCCCC)cc1O [compound 25, ((1R,6R)-2′,6′-dihydroxy-4′-(2-methyloctan-2-yl)-6-(prop-1-en-2-yl)-1,4,5,6-tetrahydro-[1,1′-biphenyl]-3-carboxylic acid)], the “Log P” value is given as “Log P = 6.99 H-D:3,H-R = 4”. For C=C(C)[C@@H]1CCC(CO)=C[C@H]1c1c(O)cc(C(C)(C)CCCCCC)cc1O [compound 26, ((1′R,2′R)-5′-(hydroxymethyl)-4-(2-methyloctan-2-yl)-2′-(prop-1-en-2-yl)-1′,2′,3′,4′-tetrahydro-[1,1′-biphenyl]-2,6-diol)], the “Log P” value is listed as “Log P = 6.52 H-D:3,H-R = 3”. For CCCCCCC(C)(C)c1cc(O)c([C@@H]2CC(C)CC[C@H]2C(C)C)c(O)c1 (stereo partly drawn) [compound 29, (2-((1R,2S)-2-isopropyl-5-methylcyclohexyl)-5-(2-methyloctan-2-yl)benzene-1,3-diol)], the “Log P” value is given as “Log P = 8.55 H-D:2,H-R = 2”. In the case of CCCCCCC(C)(C)c1cc(OC)c([C@H]2C=C(CO)[C@H]3C[C@@H]2C3(C)C)c(OC)c1 [compound 30], the “Log P” value is given as “Log P = 6.39 H-D:1,H-R = 3”. For CCCCCCC(C)(C)c1cc(OC)c(C2C=C(CO)[C@@H]3C[C@H]2C3(C)C)c(OC)c1 (some centres unmarked) [compound 31], the “Log P” value is given as “Log P = 6.39 H-D:1,H-R = 3”. For C=C(C)[C@@H]1CCC(C)=C[C@H]1c1c(O)cc(CCCC(=O)O)cc1O [compound 36, (4-((1′R,2′R)-2,6-dihydroxy-5′-methyl-2′-(prop-1-en-2-yl)-1′,2′,3′,4′-tetrahydro-[1,1′-biphenyl]-4-yl)butyric acid)], the “Log P” value is given as “Log P = 4.59 H-D:3,H-R = 4”. In the case of C=C(C)[C@@H]1CCC(C)=C[C@H]1c1ccc(CCCCC)cc1O [compound 48, ((1′R,2′R)-5′-methyl-4-pentyl-2′-(prop-1-en-2-yl)-1′,2′,3′,4′-tetrahydro-[1,1′-biphenyl]-2-ol)], the “Log P” value is given as “Log P = 6.63 H-D:1, H-R = 1”. For C=C(C)[C@@H]1CCC(C)=C[C@H]1c1c(O)cc(CCCCC)cc1OCC(=O)O [compound 50], the “Log P” value is listed as “Log P = 5.95 H-D:2,H-R = 4”. For C=C(C)[C@@H]1CCC(C)=C[C@H]1c1c(O)cc(CCCCC)cc1OCCCN [compound 51, ((1′R,2′R)-6-(3-aminopropoxy)-5′-methyl-4-pentyl-2′-(prop-1-en-2-yl)-1′,2′,3′,4′-tetrahydro-[1,1′-biphenyl]-2-ol)], the “Log P” value is listed as “Log P = 5.73 H-D:2,H-R = 3”. For C=C(C)[C@@H]1CCC(C)=C[C@H]1c1c(OC(=O)CO[Si](C)(C)C(C)(C)C)cc(CCCCC)cc1OC(=O)CO[Si](C)(C)C(C)(C)C [compound 54], the “Log P” value is listed as “Log P = 9.55 H-D:0,H-R = 4”. For C=C(C)[C@@H]1CC(OC(C)=O)C(C)=C[C@H]1c1c(OC(C)=O)cc(CCCCC)cc1OC(C)=O (stereo partly drawn) [compound 57, (3-(acetyloxy)-2-[(1R,6R)-4-(acetyloxy)-3-methyl-6-(prop-1-en-2-yl)cyclohex-2-en-1-yl]-5-pentylphenyl acetate)], the “Log P” value is listed as “Log P = 5.36 H-D:0,H-R = 3”. For C=C(C)[C@@H]1CCC(C)=C[C@H]1C1=C(O)C(=O)C(CCCCC)=CC1=O [compound 59, (3-hydroxy-2-[(1R,6R)-3-methyl-6-prop-1-en-2-ylcyclohex-2-en-1-yl]-5-pentylcyclohex-2,5-diene-1,4-dione)], the “Log P” value is given as “Log P = 5.23 H-D:1,H-R = 3”. For C=C(C)[C@@H]1CCC(C)=C[C@H]1C1=C(O)C(=O)C(CCCCC)=C(NCc2ccccc2)C1=O [compound 61, (2,5-cyclohexadiene-1,4-dione, 2-hydroxy-3-((1R,6R)-3-methyl-6-(1-methylvinyl)-2-cyclohexen-1-yl)-6-pentyl-5-((benzyl)amino))], the “Log P” value is listed as “Log P = 6.23 H-D:2,H-R = 4”. For C=C(C)[C@@H]1CCC(C)=C[C@H]1c1c(C)cc(O)cc1O [compound 62, (5-methyl-4-[(1R,6R)-3-methyl-6-prop-1-en-2-ylcyclohex-2-en-1-yl]benzene-1,3-diol)], the “Log P” value is listed as “Log P = 4.55 H-D:2,H-R = 2”. In the case of C=C(C)[C@@H]1CCC(C)=C[C@H]1c1c(O)cc(O)cc1CCCCC [compound 63, (4-[(1R,6R)-3-methyl-6-prop-1-en-2-ylcyclohex-2-en-1-yl]-5-pentylbenzene-1,3-diol)], the “Log P” value is listed as “Log P = 6.33 H-D:2,H-R = 2”. In the case of CCCCCc1cc(O)c2c(c1)OC(C)(C)[C@@H]1CCC(C)=C[C@@H]21 [compound 66, Tetrahydrocannabinol], the “Log P” value is listed as “Log P = 5.73 H-D:1,H-R = 2”. In the case of “(2-[(1R,2R)-2-[2,6- di(acetoxy)-4- pentenyl]-4- methylcyclohex-3- en-1-yl]prop-2-en- 1-yl acetate) [compound 58]”, the “Log P” value is listed as “Log P = 5.31 H-D:0,H-R = 3”.

Same assay, conditions: Cannabidiol derivatives; pH 7.4; cited from earlier work
In the case of C=C(C)[C@@H]1CCC(C)=C[C@H]1c1c(O)cc(CCCCC)c(C(=O)O)c1O [compound 5, ((1′R,2′R)-2,6-dihydroxy-5′-methyl-4-pentyl-2′-(prop-1-en-2-yl)-1′,2′,3′,4′-tetrahydro-[1,1′-biphenyl]-3-carboxylic acid)], the “Log D7.4” value is given as 3.15. For C=C(C)[C@@H]1CCC(C)=C[C@H]1c1c(O)cc(CCC)c(C(=O)O)c1O [compound 6, ((1′R,2′R)-2,6-dihydroxy-5′-methyl-2′-(prop-1-en-2-yl)-4-propyl-1′,2′,3′,4′-tetrahydro-[1,1′-biphenyl]-3-carboxylic acid)], the “Log D7.4” value is given as 2.26. In the case of C=C(C)[C@@H]1CCC(C(=O)O)=C[C@H]1c1c(O)cc(CCCCC)cc1O [compound 10, ((1R,6R)-2′,6′-dihydroxy-4′-pentyl-6-(prop-1-en-2-yl)-1,4,5,6-tetrahydro-[1,1′-biphenyl]-3-carboxylic acid)], the “Log D7.4” value is given as 2.40.

Same assay, conditions: cited from earlier work
For CCCCCc1cc(O)c(C/C=C(\C)CCC=C(C)C)c(O)c1 [compound 64, (2-[(2E)-3,7-dimethylocta-2,6-dienyl]-5-pentylbenzene-1,3-diol)], the “Log P” value is listed as “Log P = 7.05 H-D:2,H-R = 2”.
